# Measured values reported in ChEMBL document CHEMBL3885881, “DrugMatrix”.
# Species: Rattus norvegicus
# Assay: DrugMatrix - Regimen: Daily Repeat
# Assay type: toxicity, organism-based, Sprague-Dawley
# Parameters: regimen Daily Repeat, gender Male, age 6-8 weeks
# Settings: in vivo, po, route oral GAVAGE, vehicle .5 % CMC; for ABSOLUTE BASOPHIL / ABSOLUTE EOSINOPHIL / ABSOLUTE LYMPHOCYTE / ABSOLUTE MONOCYTE / ABSOLUTE SEGMENTED NEUTROPHIL / BASOPHIL / EOSINOPHIL / ERYTHROCYTE COUNT / HEMATOCRIT / HEMOGLOBIN / LEUKOCYTE COUNT / LYMPHOCYTE / MEAN CORPUSCULAR HEMOGLOBIN / MEAN CORPUSCULAR HEMOGLOBIN CONCENTRATION / MEAN CORPUSCULAR VOLUME / MONOCYTE / NEUTROPHIL / NUCLEATED RED BLOOD CELLS / PLATELET COUNT: tissue Blood; for ALANINE AMINOTRANSFERASE / ALBUMIN / ALKALINE PHOSPHATASE / ASPARTATE AMINOTRANSFERASE / BLOOD UREA NITROGEN / CARBON DIOXIDE / CHLORIDE / CHOLESTEROL / CREATINE PHOSPHOKINASE / CREATININE / GLUCOSE / LACTATE DEHYDROGENASE / LIPASE / PHOSPHORUS / POTASSIUM / SODIUM / TOTAL BILIRUBIN / TOTAL PROTEIN / URIC ACID: tissue Plasma
# [1] = 60 mg/kg, 72 h, dose level Low, time 3 day
# [2] = 60 mg/kg, 120 h, dose level Low, time 5 day
# [3] = 435 mg/kg, 72 h, dose level High, time 3 day
# [4] = 435 mg/kg, 120 h, dose level High, time 5 day
smiles,measurement,setting,value
CCCCCCCCNC(C)C(O)c1ccc(SC(C)C)cc1 (configuration not stated) [SULOCTIDIL],ABSOLUTE BASOPHIL,[1],0 CELLS/uL
same,ABSOLUTE EOSINOPHIL,[1],0 CELLS/uL
same,ABSOLUTE LYMPHOCYTE,[1],12874.67 CELLS/uL
same,ABSOLUTE MONOCYTE,[1],326.33 CELLS/uL
same,ABSOLUTE SEGMENTED NEUTROPHIL,[1],2365.67 CELLS/uL
same,BASOPHIL,[1],0%
same,EOSINOPHIL,[1],0%
same,ERYTHROCYTE COUNT,[1],5.66 x10E6/uL
same,HEMATOCRIT,[1],34.83%
same,HEMOGLOBIN,[1],13.2 G/DL
same,LEUKOCYTE COUNT,[1],15.57 x10E3/uL
same,LYMPHOCYTE,[1],81.33%
same,MEAN CORPUSCULAR HEMOGLOBIN,[1],23.33 pg
same,MEAN CORPUSCULAR HEMOGLOBIN CONCENTRATION,[1],37.93 G/DL
same,MEAN CORPUSCULAR VOLUME,[1],61.57 fL
same,MONOCYTE,[1],2.33%
same,NEUTROPHIL,[1],16.33%
same,NUCLEATED RED BLOOD CELLS,[1],0 /100WBC
same,PLATELET COUNT,[1],1204 x10E3/uL
same,ALANINE AMINOTRANSFERASE,[1],56.67 u/L
same,ALBUMIN,[1],4.23 G/DL
same,ALKALINE PHOSPHATASE,[1],425.33 u/L
same,ASPARTATE AMINOTRANSFERASE,[1],91.67 u/L
same,BLOOD UREA NITROGEN,[1],18 mg/dL
same,CARBON DIOXIDE,[1],25 mmol/L
same,CHLORIDE,[1],101.33 MEQ/L
same,CHOLESTEROL,[1],80 mg/dL
same,CREATINE PHOSPHOKINASE,[1],410.67 u/L
same,CREATININE,[1],0.23 mg/dL
same,GLUCOSE,[1],140.33 mg/dL
same,LACTATE DEHYDROGENASE,[1],416.33 u/L
same,LIPASE,[1],10.33 u/L
same,PHOSPHORUS,[1],14.3 mg/dL
same,POTASSIUM,[1],5.93 MEQ/L
same,SODIUM,[1],145.47 MEQ/L
same,TOTAL BILIRUBIN,[1],0.17 mg/dL
same,TOTAL PROTEIN,[1],6.27 G/DL
same,URIC ACID,[1],1.4 mg/dL
same,ABSOLUTE BASOPHIL,[2],0 CELLS/uL
same,ABSOLUTE EOSINOPHIL,[2],0 CELLS/uL
same,ABSOLUTE LYMPHOCYTE,[2],10938.33 CELLS/uL
same,ABSOLUTE MONOCYTE,[2],387.67 CELLS/uL
same,ABSOLUTE SEGMENTED NEUTROPHIL,[2],1740.67 CELLS/uL
same,BASOPHIL,[2],0%
same,EOSINOPHIL,[2],0%
same,ERYTHROCYTE COUNT,[2],5.48 x10E6/uL
same,HEMATOCRIT,[2],33.37%
same,HEMOGLOBIN,[2],13.03 G/DL
same,LEUKOCYTE COUNT,[2],13.07 x10E3/uL
same,LYMPHOCYTE,[2],83.67%
same,MEAN CORPUSCULAR HEMOGLOBIN,[2],23.83 pg
same,MEAN CORPUSCULAR HEMOGLOBIN CONCENTRATION,[2],39.1 G/DL
same,MEAN CORPUSCULAR VOLUME,[2],61.07 fL
same,MONOCYTE,[2],3%
same,NEUTROPHIL,[2],13.33%
same,NUCLEATED RED BLOOD CELLS,[2],0 /100WBC
same,PLATELET COUNT,[2],1209.67 x10E3/uL
same,ALANINE AMINOTRANSFERASE,[2],49.33 u/L
same,ALBUMIN,[2],4.03 G/DL
same,ALKALINE PHOSPHATASE,[2],405.67 u/L
same,ASPARTATE AMINOTRANSFERASE,[2],76 u/L
same,BLOOD UREA NITROGEN,[2],16.67 mg/dL
same,CARBON DIOXIDE,[2],29.33 mmol/L
same,CHLORIDE,[2],98.67 MEQ/L
same,CHOLESTEROL,[2],65.67 mg/dL
same,CREATINE PHOSPHOKINASE,[2],223 u/L
same,CREATININE,[2],0.21 mg/dL
same,GLUCOSE,[2],141.33 mg/dL
same,LACTATE DEHYDROGENASE,[2],112 u/L
same,LIPASE,[2],9.67 u/L
same,PHOSPHORUS,[2],13.63 mg/dL
same,POTASSIUM,[2],6.46 MEQ/L
same,SODIUM,[2],145.77 MEQ/L
same,TOTAL BILIRUBIN,[2],0.1 mg/dL
same,TOTAL PROTEIN,[2],5.97 G/DL
same,URIC ACID,[2],1.43 mg/dL
same,ABSOLUTE BASOPHIL,[3],0 CELLS/uL
same,ABSOLUTE EOSINOPHIL,[3],0 CELLS/uL
same,ABSOLUTE LYMPHOCYTE,[3],12119.33 CELLS/uL
same,ABSOLUTE MONOCYTE,[3],277.33 CELLS/uL
same,ABSOLUTE SEGMENTED NEUTROPHIL,[3],1536.67 CELLS/uL
same,BASOPHIL,[3],0%
same,EOSINOPHIL,[3],0%
same,ERYTHROCYTE COUNT,[3],5.33 x10E6/uL
same,HEMATOCRIT,[3],33.43%
same,HEMOGLOBIN,[3],12.9 G/DL
same,LEUKOCYTE COUNT,[3],13.93 x10E3/uL
same,LYMPHOCYTE,[3],87%
same,MEAN CORPUSCULAR HEMOGLOBIN,[3],24.23 pg
same,MEAN CORPUSCULAR HEMOGLOBIN CONCENTRATION,[3],38.6 G/DL
same,MEAN CORPUSCULAR VOLUME,[3],62.83 fL
same,MONOCYTE,[3],2%
same,NEUTROPHIL,[3],11%
same,NUCLEATED RED BLOOD CELLS,[3],0 /100WBC
same,PLATELET COUNT,[3],1170.67 x10E3/uL
same,ALANINE AMINOTRANSFERASE,[3],123 u/L
same,ALBUMIN,[3],4.1 G/DL
same,ALKALINE PHOSPHATASE,[3],384.67 u/L
same,ASPARTATE AMINOTRANSFERASE,[3],116 u/L
same,BLOOD UREA NITROGEN,[3],16 mg/dL
same,CARBON DIOXIDE,[3],24.67 mmol/L
same,CHLORIDE,[3],102 MEQ/L
same,CHOLESTEROL,[3],71.33 mg/dL
same,CREATINE PHOSPHOKINASE,[3],478.67 u/L
same,CREATININE,[3],0.2 mg/dL
same,GLUCOSE,[3],126.67 mg/dL
same,LACTATE DEHYDROGENASE,[3],279.67 u/L
same,LIPASE,[3],10.67 u/L
same,PHOSPHORUS,[3],11.9 mg/dL
same,POTASSIUM,[3],5.78 MEQ/L
same,SODIUM,[3],145.13 MEQ/L
same,TOTAL BILIRUBIN,[3],0.1 mg/dL
same,TOTAL PROTEIN,[3],5.8 G/DL
same,URIC ACID,[3],1.2 mg/dL
same,ABSOLUTE BASOPHIL,[4],0 CELLS/uL
same,ABSOLUTE EOSINOPHIL,[4],49.33 CELLS/uL
same,ABSOLUTE LYMPHOCYTE,[4],11875.33 CELLS/uL
same,ABSOLUTE MONOCYTE,[4],141.33 CELLS/uL
same,ABSOLUTE SEGMENTED NEUTROPHIL,[4],1867.33 CELLS/uL
same,BASOPHIL,[4],0%
same,EOSINOPHIL,[4],0.33%
same,ERYTHROCYTE COUNT,[4],6 x10E6/uL
same,HEMATOCRIT,[4],36.07%
same,HEMOGLOBIN,[4],13.93 G/DL
same,LEUKOCYTE COUNT,[4],13.93 x10E3/uL
same,LYMPHOCYTE,[4],85.33%
same,MEAN CORPUSCULAR HEMOGLOBIN,[4],23.27 pg
same,MEAN CORPUSCULAR HEMOGLOBIN CONCENTRATION,[4],38.67 G/DL
same,MEAN CORPUSCULAR VOLUME,[4],60.1 fL
same,MONOCYTE,[4],1%
same,NEUTROPHIL,[4],13.33%
same,NUCLEATED RED BLOOD CELLS,[4],0 /100WBC
same,PLATELET COUNT,[4],1140 x10E3/uL
same,ALANINE AMINOTRANSFERASE,[4],337 u/L
same,ALBUMIN,[4],3.63 G/DL
same,ALKALINE PHOSPHATASE,[4],249.33 u/L
same,ASPARTATE AMINOTRANSFERASE,[4],188 u/L
same,BLOOD UREA NITROGEN,[4],13.67 mg/dL
same,CARBON DIOXIDE,[4],25 mmol/L
same,CHLORIDE,[4],105 MEQ/L
same,CHOLESTEROL,[4],25 mg/dL
same,CREATINE PHOSPHOKINASE,[4],1012.33 u/L
same,CREATININE,[4],0.12 mg/dL
same,GLUCOSE,[4],128.67 mg/dL
same,LACTATE DEHYDROGENASE,[4],213 u/L
same,LIPASE,[4],8.67 u/L
same,PHOSPHORUS,[4],10.37 mg/dL
same,POTASSIUM,[4],5.67 MEQ/L
same,SODIUM,[4],144.2 MEQ/L
same,TOTAL BILIRUBIN,[4],0.1 mg/dL
same,TOTAL PROTEIN,[4],5.1 G/DL
same,URIC ACID,[4],1.23 mg/dL
